Data taken from ChEMBL document CHEMBL6182903, “Synthetic approaches and clinical application of KRAS inhibitors for cancer therapy” (Eur J Med Chem, 2025).
Blank lines part the entries; values can stand above or below the compound they belong to.

Assays:
[1] = target: von Hippel-Lindau disease tumor suppressor/GTPase KRas (Homo sapiens, UniProt P01116+P40337, G12C); test: PROTAC activity at VHL/KRAS G12C mutant in human MIA PaCa-2 cells assessed as induction of KRAS G12C degradation; assay type: cell-based
[2] = PROTAC activity at CRBN/KRAS G12C mutant in human MIA PaCa-2 cells assessed as induction of KRAS G12C degradation; assay type: cell-based
GTPase KRas [3] = target: T1, GTPase KRas (Homo sapiens, UniProt P01116, G12S); test: Inhibition of KRAS G12S mutant in human A549 cells assessed as reduction in ERK phosphorylation; assay type: cell-based
GTPase KRas [4] = target: T1, GTPase KRas; test: Binding affinity to human recombinant GDP-bound KRAS G12S mutant (1 to 169 residues) assessed as inhibition constant
BaF3 = test: Cytotoxicity against mouse BaF3 cells harboring KRAS G12R mutant assessed as reduction in cells growth incubated for 72 hrs by Celltiter-Glo luminescence-based assay; assay type: functional, cell-based; conditions: BaF3, 72 h

Compound: C=C(F)C(=O)N1CCN(c2nc(OC[C@@H]3CCCN3CCCOCCC(=O)N[C@H](C(=O)N3C[C@H](O)C[C@H]3C(=O)NCc3ccc(-c4scnc4C)cc3)C(C)(C)C)nc3c2CCN(c2cccc4cccc(Cl)c24)C3)C[C@@H]1CC#N
DC50 [1]: 0.12 µM

Compound: C=CC(=O)N1CCN(c2nc(NCCCN3CCN(CCCNc4cccc5c4C(=O)N(C4CCC(=O)NC4=O)C5=O)CC3)nc3c(F)c(-c4cc(O)cc5ccccc45)c(Cl)cc23)CC1 (stereo not given)
DC50 [2]: 3.2 µM

IC50 (GTPase KRas [3]): 2.4 µM
Ki (GTPase KRas [4]): 26 µM
Compound: O=C1O[C@H]2CN(c3nc(OCC45CCCN4CCC5)nc4c3CCN(c3cccc5cccc(Cl)c35)C4)CC[C@@H]12

Compound: CC(=O)CC(=O)N1[C@@H]2CC[C@H]1CN(c1nc(OCC34CCCN3CCC4)nc3c(F)c(-c4cccc5cccc(Cl)c45)ncc13)C2
IC50 (BaF3): < 100 µM
